PubChem BioAssay AID1963972 (Molecular Pharmacology Branch, DTP, NCI, 2024)
Each block holds one compound with its values, some of them ahead of it.

Tested on: 945468-187-T-J2-PDC spheroids viability
Experiment: Anticancer human tumor 945468-187-T-J2-PDC patient-derived rectal carcinoma cell line growth inhibition [PI3K]
Details: spheroids with HUVEC and MSC; for IC50: curve of first compound; for viability, T/C: stronger effect = lower value
Summary of the method: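 Multi-cell spheroids combine tumor cells with HUVEC and human MSCs, treated with targeted agents alone or with inavolisib, alpelisib, duvelisib or copanlisib. Concentrations fall in half-log steps from at or near clinical Cmax, or from 10 microM where Cmax is unknown; viability read-out.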

[1] = second compound 0.0316 µM, first compound 0.0316 µM
[2] = second compound 0.0316 µM, first compound 0.1 µM
[3] = second compound 0.0316 µM, first compound 0.316 µM
[4] = second compound 0.0316 µM, first compound 1 µM
[5] = second compound 0.0316 µM, first compound 3.16 µM
[6] = second compound 0.0316 µM, first compound 10 µM
[7] = second compound 0.1 µM, first compound 0.0316 µM
[8] = second compound 0.1 µM, first compound 0.1 µM
[9] = second compound 0.1 µM, first compound 0.316 µM
[10] = second compound 0.1 µM, first compound 1 µM
[11] = second compound 0.1 µM, first compound 3.16 µM
[12] = second compound 0.1 µM, first compound 10 µM
[13] = second compound 0.316 µM, first compound 0.0316 µM
[14] = second compound 0.316 µM, first compound 0.1 µM
[15] = second compound 0.316 µM, first compound 0.316 µM
[16] = second compound 0.316 µM, first compound 1 µM
[17] = second compound 0.316 µM, first compound 3.16 µM
[18] = second compound 0.316 µM, first compound 10 µM
[19] = second compound 1 µM, first compound 0.0316 µM
[20] = second compound 1 µM, first compound 0.1 µM
[21] = second compound 1 µM, first compound 0.316 µM
[22] = second compound 1 µM, first compound 1 µM
[23] = second compound 1 µM, first compound 3.16 µM
[24] = second compound 1 µM, first compound 10 µM
[25] = second compound 3.16 µM, first compound 0.0316 µM
[26] = second compound 3.16 µM, first compound 0.1 µM
[27] = second compound 3.16 µM, first compound 0.316 µM
[28] = second compound 3.16 µM, first compound 1 µM
[29] = second compound 3.16 µM, first compound 3.16 µM
[30] = second compound 3.16 µM, first compound 10 µM
[31] = second compound 10 µM, first compound 0.0316 µM
[32] = second compound 10 µM, first compound 0.1 µM
[33] = second compound 10 µM, first compound 0.316 µM
[34] = second compound 10 µM, first compound 1 µM
[35] = second compound 10 µM, first compound 3.16 µM
[36] = second compound 10 µM, first compound 10 µM
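Further: spheroids exposed to compounds for seven days before reading.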

SMILES: CC(Cn1ccc(-c2ccc(C#N)c(Cl)c2)n1)NC(=O)c1cc(C(C)O)[nH]n1 (stereo not given) + Cc1nc(NC(=O)N2CCCC2C(N)=O)sc1-c1ccnc(C(C)(C)C(F)(F)F)c1
IC50 (second compound 0.0316 µM): > 10 µM
IC50 (second compound 0.1 µM): > 10 µM
IC50 (second compound 0.316 µM): > 10 µM
IC50 (second compound 1 µM): > 10 µM
IC50 (second compound 3.16 µM): > 10 µM
IC50 (second compound 10 µM): > 10 µM
viability, T/C [1]: 118%
viability, T/C [2]: 94.1%
viability, T/C [3]: 115%
viability, T/C [4]: 96.3%
viability, T/C [5]: 90.7%
viability, T/C [6]: 82.5%
viability, T/C [7]: 90.7%
viability, T/C [8]: 81%
viability, T/C [9]: 90.8%
viability, T/C [10]: 100%
viability, T/C [11]: 104%
viability, T/C [12]: 82.1%
viability, T/C [13]: 100%
viability, T/C [14]: 95.6%
viability, T/C [15]: 109%
viability, T/C [16]: 80%
viability, T/C [17]: 89.6%
viability, T/C [18]: 83.4%
viability, T/C [19]: 95.4%
viability, T/C [20]: 84.9%
viability, T/C [21]: 79.4%
viability, T/C [22]: 101%
viability, T/C [23]: 79.3%
viability, T/C [24]: 84.7%
viability, T/C [25]: 81%
viability, T/C [26]: 84.2%
viability, T/C [27]: 78.4%
viability, T/C [28]: 83.5%
viability, T/C [29]: 71.7%
viability, T/C [30]: 74.9%
viability, T/C [31]: 76.9%
viability, T/C [32]: 76.3%
viability, T/C [33]: 73.3%
viability, T/C [34]: 68%
viability, T/C [35]: 69%
viability, T/C [36]: 61.5%

SMILES: Cn1ncc(Cl)c1-c1cc(C(=O)NC(CN)Cc2cccc(F)c2)sc1Cl (stereo not given) + Cc1nc(NC(=O)N2CCCC2C(N)=O)sc1-c1ccnc(C(C)(C)C(F)(F)F)c1
IC50 (second compound 0.0316 µM): > 10 µM
IC50 (second compound 0.1 µM): > 10 µM
IC50 (second compound 0.316 µM): > 10 µM
IC50 (second compound 1 µM): > 10 µM
IC50 (second compound 3.16 µM): > 10 µM
IC50 (second compound 10 µM): > 10 µM
viability, T/C [1]: 94%
viability, T/C [2]: 123%
viability, T/C [3]: 104%
viability, T/C [4]: 77.9%
viability, T/C [5]: 89.8%
viability, T/C [6]: 71.6%
viability, T/C [7]: 116%
viability, T/C [8]: 134%
viability, T/C [9]: 104%
viability, T/C [10]: 101%
viability, T/C [11]: 72.3%
viability, T/C [12]: 65.9%
viability, T/C [13]: 102%
viability, T/C [14]: 104%
viability, T/C [15]: 124%
viability, T/C [16]: 92.1%
viability, T/C [17]: 72.3%
viability, T/C [18]: 70.9%
viability, T/C [19]: 97.4%
viability, T/C [20]: 92.7%
viability, T/C [21]: 97.4%
viability, T/C [22]: 88.4%
viability, T/C [23]: 77.9%
viability, T/C [24]: 54.9%
viability, T/C [25]: 86.7%
viability, T/C [26]: 87.7%
viability, T/C [27]: 88%
viability, T/C [28]: 75.1%
viability, T/C [29]: 72.5%
viability, T/C [30]: 60%
viability, T/C [31]: 85.9%
viability, T/C [32]: 79.8%
viability, T/C [33]: 92.5%
viability, T/C [34]: 89%
viability, T/C [35]: 59.5%
viability, T/C [36]: 56.6%

SMILES: Cn1nccc1Nc1nccc(-c2ccn(C(CO)c3ccc(Cl)c(F)c3)c(=O)c2)n1 (stereo not given) + Cc1nc(NC(=O)N2CCCC2C(N)=O)sc1-c1ccnc(C(C)(C)C(F)(F)F)c1
IC50 (second compound 0.0316 µM): > 10 µM
IC50 (second compound 0.1 µM): > 10 µM
IC50 (second compound 0.316 µM): > 10 µM
IC50 (second compound 1 µM): > 10 µM
IC50 (second compound 3.16 µM): > 10 µM
IC50 (second compound 10 µM): > 10 µM
viability, T/C [1]: 107%
viability, T/C [2]: 116%
viability, T/C [3]: 88.5%
viability, T/C [4]: 79.3%
viability, T/C [5]: 103%
viability, T/C [6]: 72.8%
viability, T/C [7]: 112%
viability, T/C [8]: 110%
viability, T/C [9]: 108%
viability, T/C [10]: 105%
viability, T/C [11]: 87.4%
viability, T/C [12]: 82.1%
viability, T/C [13]: 129%
viability, T/C [14]: 107%
viability, T/C [15]: 98.1%
viability, T/C [16]: 89.2%
viability, T/C [17]: 105%
viability, T/C [18]: 80.7%
viability, T/C [19]: 118%
viability, T/C [20]: 108%
viability, T/C [21]: 104%
viability, T/C [22]: 119%
viability, T/C [23]: 85.2%
viability, T/C [24]: 74.8%
viability, T/C [25]: 85.9%
viability, T/C [26]: 119%
viability, T/C [27]: 85.6%
viability, T/C [28]: 82.8%
viability, T/C [29]: 79.7%
viability, T/C [30]: 88.5%
viability, T/C [31]: 76.8%
viability, T/C [32]: 98.3%
viability, T/C [33]: 71.1%
viability, T/C [34]: 86.9%
viability, T/C [35]: 88%
viability, T/C [36]: 72.4%

Now from value to compound, other results behind:

IC50 (second compound 0.0316 µM): > 10 µM
IC50 (second compound 0.1 µM): > 10 µM
IC50 (second compound 0.316 µM): > 10 µM
IC50 (second compound 1 µM): > 10 µM
IC50 (second compound 3.16 µM): > 10 µM
IC50 (second compound 10 µM): > 10 µM
SMILES: C#Cc1c(F)ccc2cc(O)cc(-c3ncc4c(N5CC6CCC(C5)N6)nc(OCC56CCCN5CC(F)C6)nc4c3F)c12 (stereo not given) + Cc1nc(NC(=O)N2CCCC2C(N)=O)sc1-c1ccnc(C(C)(C)C(F)(F)F)c1
viability, T/C [1]: 110%
viability, T/C [2]: 110%
viability, T/C [3]: 105%
viability, T/C [4]: 103%
viability, T/C [5]: 135%
viability, T/C [6]: 107%
viability, T/C [7]: 125%
viability, T/C [8]: 114%
viability, T/C [9]: 102%
viability, T/C [10]: 107%
viability, T/C [11]: 136%
viability, T/C [12]: 105%
viability, T/C [13]: 103%
viability, T/C [14]: 100%
viability, T/C [15]: 116%
viability, T/C [16]: 102%
viability, T/C [17]: 164%
viability, T/C [18]: 99.1%
viability, T/C [19]: 125%
viability, T/C [20]: 93.6%
viability, T/C [21]: 109%
viability, T/C [22]: 116%
viability, T/C [23]: 106%
viability, T/C [24]: 90.5%
viability, T/C [25]: 85.6%
viability, T/C [26]: 85.8%
viability, T/C [27]: 95.4%
viability, T/C [28]: 94.1%
viability, T/C [29]: 94%
viability, T/C [30]: 117%
viability, T/C [31]: 85.5%
viability, T/C [32]: 73.2%
viability, T/C [33]: 99%
viability, T/C [34]: 92.6%
viability, T/C [35]: 77%
viability, T/C [36]: 80.9%

IC50 (second compound 0.0316 µM): > 10 µM
IC50 (second compound 0.1 µM): > 10 µM
IC50 (second compound 0.316 µM): > 10 µM
IC50 (second compound 1 µM): > 10 µM
IC50 (second compound 3.16 µM): > 10 µM
IC50 (second compound 10 µM): > 10 µM
SMILES: C=CC(=O)N1CCN(c2nc(=O)n(-c3c(C)ccnc3C(C)C)c3nc(-c4c(O)cccc4F)c(F)cc23)C(C)C1 (stereo not given) + Cc1nc(NC(=O)N2CCCC2C(N)=O)sc1-c1ccnc(C(C)(C)C(F)(F)F)c1
viability, T/C [1]: 102%
viability, T/C [2]: 79.7%
viability, T/C [3]: 96.2%
viability, T/C [4]: 90.1%
viability, T/C [5]: 128%
viability, T/C [6]: 113%
viability, T/C [7]: 117%
viability, T/C [8]: 121%
viability, T/C [9]: 97.9%
viability, T/C [10]: 97.5%
viability, T/C [11]: 95%
viability, T/C [12]: 106%
viability, T/C [13]: 117%
viability, T/C [14]: 156%
viability, T/C [15]: 102%
viability, T/C [16]: 106%
viability, T/C [17]: 101%
viability, T/C [18]: 96%
viability, T/C [19]: 102%
viability, T/C [20]: 111%
viability, T/C [21]: 100%
viability, T/C [22]: 91.6%
viability, T/C [23]: 95%
viability, T/C [24]: 104%
viability, T/C [25]: 91.2%
viability, T/C [26]: 107%
viability, T/C [27]: 83.8%
viability, T/C [28]: 81.9%
viability, T/C [29]: 82.8%
viability, T/C [30]: 96.2%
viability, T/C [31]: 70.4%
viability, T/C [32]: 87.8%
viability, T/C [33]: 81.7%
viability, T/C [34]: 73.7%
viability, T/C [35]: 87.3%
viability, T/C [36]: 92.9%
